Patent US10441616B2, “Pharmaceutical composition for treating or preventing sensorineural hearing loss, containing cysteinyl leukotriene receptor antagonist and ginkgo leaf extract” (AJOU UNIVERSITY INDUSTRY-ACADEMIC COOPERATION FOUNDATION, priority 2014, dated 2019)

Experiments:
Assay type in all cases: in vivo, mouse
stereocilia of OHC = assay: Scanning electron microscopy (SEM) of cochlear hair cells after noise exposure; conditions: basal turn areas corresponding to 32 kHz, montelukast post-treatment compared with only-noise exposed group
From the text: The SEM was used for evaluating the form of the hair cells of the cochlea. The mouse was euthanized after intraperitoneal injection of urethane, and temporal bones were dissected at both sides from the skull in order to obtain the cochlea to be carefully cut. The fenestra rotunda of the obtained cochlea was perforated by using a sharp needle. An outer lymph space was perfused with 2% glutaraldehyde in PBS by positioning a Pasteur pipette having a modified butterfly catheter for the fenestra rotunda. Each sample was left in a glutaraldehyde solution overnight. The samples were perfused with 1% osmium tetroxide and positioned at a tissue rotator for 15 minutes. The samples were rinsed with PBS three times. Under an optical microscope, the bone part of the cochlea was carefully removed and a lateral wall was cut and removed to expose the Corti's organ. The tissue was continuously dehydrated with 50, 70, 90, 95, and 100% acetones. Each specimen was treated with hexamethyldisilazane (HMDS) and dried in air, and positioned in a stove for coating of platinum. The tissue was photographed by JSM-6380 (Jeol, Tokyo, Japan). The damage to the hair cells was analyzed in basal turn areas corresponding to 32 kHz.

hair cells = assay: Surface preparation / Texas-Red phalloidin staining of hair cells of the Corti's organ after noise exposure; conditions: 1 week after noise exposure, 32 kHz site; montelukast post-treatment group compared with noise exposure group
Method: The cut cochlea was perfused with 4% PFA in 0.1 M PB and maintained overnight at 4° C. The cochlea was washed with PBS three times for 10 minutes and then decalcified with a 5% EDTA solution for 3 days. After decalcification, an otic capsule was removed and a lateral wall, a Reissner's membrane, and a tectorial membrane were removed under an optical microscope. The Corti's organ (OC) was dyed with Texas Red VR-X phalloidin (T7471; 200 U/mL methanol diluted 1:100 in PBS; Invitrogen, Eugene, Oreg.) for 1 hour. Thereafter, the entire samples were rinsed with PBS and cut and placed on a glass slide by performing a surface treatment method (microdissected into individual turns) and using a mounting solution containing 4′6-diamidino-2-phenilindol (H-1200; 1.5 μg/ml; DAPI; Vector Laboratories). The slide was incubated for at least 15 minutes. The hair cells of the OC were observed by a confocal microscope (LSM510, Carl Zeiss, Jena, Germany).

CysLT1 receptor gene = assay: PCR of Cysltr1 gene expression in the cochlea after noise exposure; conditions: 3 day after noise exposure, montelukast post-treatment vs noise exposure group
Method: At 1 day, 3 day, and 7 day, the animal was euthanized with urethane intraperitoneal injection (1 g/kg) and the bilateral temporal bone was immediately removed. Two isolated cochleae were dissolved in a TRIzol solution, the lipid was removed by adding chloroform, and then RNA gene was extracted with isopropanol alcohol. The extracted RNA gene was quantified, mixed with two types of forward and reverse primers and polymerase, and amplified at an average of 35 cycles for each primer through a PCR machine, and then changes in expression level for each gene were compared and analyzed by measuring the fluorescent degree.

[1] = tested on: matrix metalloproteinase-3 (Mmp3); assay: Gene and protein expression of Mmp3 in inner ear tissue after noise exposure (FIG. 10)

SMILES: CC(C)(O)c1ccccc1CCC(SCC1(CC(=O)[O-])CC1)c1cccc(/C=C/c2ccc3ccc(Cl)cc3n2)c1.[Na+] (centres unmarked) [montelukast]
- damage to the stereocilia of OHC (stereocilia of OHC): significantly reduced
- hair cell marker (phalloidin) (hair cells): significantly increased
- CysLT1 receptor gene (Cysltr1) expression (CysLT1 receptor gene): significantly decreased
- Mmp3 gene expression level ([1]; montelukast post-treatment after noise exposure (FIG. 10A)): reduction
- Mmp3 protein expression level ([1]; western blot, montelukast post-treatment after noise exposure (FIG. 10B)): reduction
